The IC50 is the point on the concentration scale where inhibition reaches its midpoint. A word on the % Inhibition: it is the relative decrease from the control value, in per cent.

One assay concerns the target T1, purified recombinant human Aggrecanase-2 (Agg2-Phe628) (Homo sapiens, UniProt Q9UNA0).
T1 construct: (Agg2-Phe628) (MW=41,737), which is a truncated form of full-length human aggrecanase-2; made in house; host or cells: CHO cells
T1 sequence (Q9UNA0 262-628 limits assumed): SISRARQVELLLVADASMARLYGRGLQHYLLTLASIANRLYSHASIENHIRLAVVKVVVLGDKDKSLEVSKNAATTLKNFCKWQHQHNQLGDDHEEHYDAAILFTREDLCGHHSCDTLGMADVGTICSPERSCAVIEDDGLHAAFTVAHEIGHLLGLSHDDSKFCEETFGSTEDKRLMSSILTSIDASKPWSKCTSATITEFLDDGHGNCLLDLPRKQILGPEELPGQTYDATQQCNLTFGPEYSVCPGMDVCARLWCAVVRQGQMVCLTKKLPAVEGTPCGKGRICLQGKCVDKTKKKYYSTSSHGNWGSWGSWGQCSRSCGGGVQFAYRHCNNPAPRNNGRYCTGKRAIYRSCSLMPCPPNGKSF
The experiment in a line: Aggrecanase 2 continuous in vitro fluorescence assay. The format is biochemical. Particulars: Agg2-Phe628 0.5 μg/ml, substrate 25 μM, 30° C.; read-out: IC50.
Experimental: A continuous vitro fluorescence assay was employed, wherein the enzyme used in the assay was a purified recombinant human Aggrecanase-2 (Agg2-Phe628) (MW=41,737), which is a truncated form of full-length human aggrecanase-2 that was expressed in CHO cells and purified prior to use. The final concentration of Agg2-Phe628 was 0.5 μg/ml. The buffer used in this assay was 50 mM HEPES, pH 7.5, 100 mM NaCl, 5 mM CaCl2, 0.1% CHAPS, 5% glycerol. The substrate used in the assay was a synthetic peptide having the sequence ABz-[sequence]-Dap(Dnp)-KK—NH2 (>95% pure by HPLC, AnaSpec, Inc.), wherein Abz refers to ortho-aminobenzyl, a fluorescent group which is quenched by energy transfer to a 2,4-dinitrophenyl group. The final concentration of substrate in the assay was 25 μM and was spectrophotometrically determined using the extinction coefficient at 354 nm of 18,172 M^−1cm^−1. The Vmax and Km for this enzyme/substrate reaction were determined to be insensitive to DMSO up to at least 10% (v/v).
The total reaction volume was 100 μl. The buffer and enzyme were added first followed by addition of 10× inhibitor from the dilution plate. Separate enzyme and buffer samples were included in order to obtain the maximal rate of substrate cleavage. The reaction was allowed to stand at 30° C. for 15 minutes, then substrate was added, the resultant solution was mixed. The resultant reaction was allowed to progress, with monitoring, for 40 minutes at 30° C. in kinetic mode using λex: 340 nm and λem: 420 (GeminiXS Molecular Devices).
The fluorescence intensity is linear during the time of data collection. The slope of the line (Vmax/sec) represents the initial reaction rate, ν. The maximal rate of cleavage of substrate was determined in the absence of inhibitor. The percent inhibition of activity in the presence of inhibitor was calculated using the following equation:
% inhibition=(1−ν(RFU/sec))/Maximal Rate(RFU/sec))*100
The IC50 was obtained by fitting the initial rate, ν or % inhibition at each concentration of inhibitor to the following equation:
This model describes a sigmoidal curve with an adjustable baseline, wherein:
y is the % inhibition or initial rate of reaction;
C is the concentration of inhibitor under test;
a is the limiting response as C approaches zero. As C increases without bound y tends toward its lower limit, d;
y is halfway between the lower and upper asymptotes when C=IC50; and
n is the Hill coefficient. The sign of n is positive when the response increases with increasing dose and is negative when the response decreases with increasing dose (inhibition).
As to `O=C1Nc2ccc(Br)cc2C12NN=C(c1ccccc1)S2` (centres unmarked) [Compound 54, 5-bromo-5′-phenyl-3′H-spiro[indoline-3,2′-[1,3,4]thiadiazol]-2-one], the IC50 is 13.6 µM.
As to `COc1ccc(C2=NNC3(S2)C(=O)Nc2c3ccc(C)c2OC)cc1` (centres unmarked) [Compound 20, 7-methoxy-5′-(4-methoxyphenyl)-6-methyl-3′H-spiro[indole-3,2′-[1,3,4]thiadiazol]-2(1H)-one], the IC50 is 5.92 µM.
On to `Cc1cc(C)c2c(c1)C1(NN=C(c3ccccc3)S1)C(=O)N2` (centres unmarked) [Compound 34, 5,7-dimethyl-5′-phenyl-3′H-spiro[indole-3,2′-[1,3,4]thiadiazol]-2(1H)-one], for which the IC50 turned out to be 4.67 µM.
As to `CN1C(=O)C2(NN=C(c3ccccc3)S2)c2ccccc21` (centres unmarked) [Compound 52, 1-methyl-5′-phenyl-3′H-spiro[indoline-3,2′-[1,3,4]thiadiazol]-2-one], the IC50 came to 24.1 µM.
Same read-out and setting: the same measure for “5′-(4-methoxyphenyl)-1-[3-(trifluoromethyl)phenyl]-3′H-spiro[indole-3,2′-[1,3,4]thiadiazol]-2(1H)-one [Compound 8]”: 1.18 µM; for `Cc1ccc2c(c1)C1(NN=C(c3ccccc3)S1)C(=O)N2` (centres unmarked) [Compound 55, 5-methyl-5′-phenyl-3′H-spiro[indoline-3,2′-[1,3,4]thiadiazol]-2-one]: 11.1 µM; for `CCCc1ccc2c(c1)NC(=O)C21NN=C(c2ccc(C)cc2)S1` (centres unmarked) [Compound 37, 5′-(4-methylphenyl)-6-propyl-3′H-spiro[indole-3,2′-[1,3,4]thiadiazol]-2(1H)-one]: 1.4 µM.
Still for that read-out and setting: the same measure for `COc1ccc(C2=NNC3(S2)C(=O)Nc2ccc([N+](=O)[O-])cc23)cc1` (centres unmarked) [Compound 16, 5′-(4-methoxyphenyl)-5-nitro-3′H-spiro[indole-3,2′-[1,3,4]thiadiazol]-2(1H)-one]: 4.43 µM; for “5-chloro-5′-(4-methoxyphenyl)-3′H-spiro[indole-3,2′-[1,3,4]thiadiazol]-2(1H)-one [Compound 13]”: 1.96 µM.
For `COc1ccc(C2=NNC3(S2)C(=O)N(c2ccccc2C)c2ccc(C)cc23)cc1` (centres unmarked) [Compound 23, 5′-(4-methoxyphenyl)-5-methyl-1-(2-methylphenyl)-3′H-spiro[indole-3,2′-[1,3,4]thiadiazol]-2(1H)-one], the IC50 amounted to 0.899 µM.
Same read-out and setting: the same measure for `COc1ccc(C2=NNC3(S2)C(=O)Nc2ccc(Br)cc23)cc1` (centres unmarked) [Compound 4, 5-bromo-5′-(4-methoxyphenyl)-3′H-spiro[indole-3,2′-[1,3,4]thiadiazol]-2(1H)-one]: 2.41 µM; for `CCCc1ccc2c(c1)NC(=O)C21NN=C(c2ccc(OC)cc2)S1` (centres unmarked) [Compound 15, 5′-(4-methoxyphenyl)-6-propyl-3′H-spiro[indole-3,2′-[1,3,4]thiadiazol]-2(1H)-one]: 0.775 µM; for `COc1ccc(C2=NNC3(S2)C(=O)Nc2cc(C)ccc23)cc1` (centres unmarked) [Compound 19, 5′-(4-methoxyphenyl)-6-methyl-3′H-spiro[indole-3,2′-[1,3,4]thiadiazol]-2(1H)-one]: 1.4 µM.
On the same count and under the same terms, the same measure for `COc1ccc(C2=NNC3(S2)C(=O)Nc2c3ccc(Cl)c2C)cc1` (centres unmarked) [Compound 17, 6-chloro-5′-(4-methoxyphenyl)-7-methyl-3′H-spiro[indole-3,2′-[1,3,4]thiadiazol]-2(1H)-one]: 1.04 µM.
The same measure, in the same setting: the same measure for “1-benzyl-5′-(4-methoxyphenyl)-3′H-spiro[indole-3,2′-[1,3,4]thiadiazol]-2(1H)-one [Compound 10]”: 0.874 µM.
Regarding `CCc1ccc2c(c1)C1(NN=C(c3ccc(OC)cc3)S1)C(=O)N2` (centres unmarked) [Compound 29, 5-ethyl-5′-(4-methoxyphenyl)-3′H-spiro[indole-3,2′-[1,3,4]thiadiazol]-2(1H)-one], the IC50 was 1.36 µM.
The same measure, in the same setting: the same measure for `CC(C)N1C(=O)C2(NN=C(c3ccccc3)S2)c2ccccc21` (centres unmarked) [Compound 42, 1-isopropyl-5′-phenyl-3′H-spiro[indole-3,2′-[1,3,4]thiadiazol]-2(1H)-one]: 3.05 µM.

Still in this assay, the particulars now being: inhibitor concentration not given.
With “1-(4-chlorobenzoyl)-5′-(4-methoxyphenyl)-3′H-spiro[indole-3,2′-[1,3,4]thiadiazol]-2(1H)-one [Compound 36]”, the “% Inhibition” value was 48%.
As for `Cc1ccc(C2=NNC3(S2)C(=O)Nc2ccc(C)cc23)cc1` (centres unmarked) [Compound 49, 5-methyl-5′-(4-methylphenyl)-3′H-spiro[indole-3,2′-[1,3,4]thiadiazol]-2(1H)-one], the “% Inhibition” value was 3%.
Take `COc1ccc(C2=NNC3(S2)C(=O)Nc2cccc(N4CCN(Cc5ccccc5)CC4)c23)cc1` (centres unmarked) [Compound 14, 4-(4-benzylpiperazin-1-yl)-5′-(4-methoxyphenyl)-3′H-spiro[indole-3,2′-[1,3,4]thiadiazol]-2(1H)-one]: the “% Inhibition” value came out at 50%.
